# According to patent US20130197090A1, “POSTURAL STABILITY AND INCIDENT FUNCTIONS IN PATIENTS” (Chelsea Therapeutics, Inc., priority 2012, published 2013):
# Columns and labels:
# [1] = system: PD patients; assay: Patient-reported falls, double-blind placebo-controlled study of Example 1; format: in vivo, human
# Experimental: A multi-center, double-blind, randomized, parallel-group, placebo-controlled study was carried out to assess the clinical effect of droxidopa over the course of 10 weeks for reducing falls in PD patients. The study included a two week double-blind dose-titration period followed by an eight week double-blind treatment period. A screening period (up to 14 days) was used to determine patient eligibility. Throughout the study, visit specific assessments were conducted three hours (an acceptable range was two to five hours) following the patient's first daily dose of droxidopa. Patients who successfully passed all screening assessments continued to the baseline measurements. At the end of the baseline visit, eligible patients were randomized to treatment with either droxidopa or placebo (randomization was double-blind, 1:1). Patients entered a double-blind titration phase at 100 mg TID of droxidopa or matching placebo. Treatment was escalated in 100 mg TID increments to a maximum of 600 mg TID. Upon completion of the dose titration phase, patients returned for a study visit after 8 weeks of double-blind treatment at their titrated dose. The study included 27 placebo-treated patients and 24 droxidopa-treated patients. During the study, the placebo-treated patients reported a total of 197 falls compared with 79 falls reported by the droxidopa-treated patients. […] Standardizing the above data to the number of falls per patient per week, patients randomized to the placebo treatment experienced an average of 0.93 falls per patient per week. Patients randomized to the droxidopa treatment experienced an average of 0.39 falls per patient per week. This represents an approximate 60% reduction in the number of falls reported by droxidopa-treated patients compared with placebo-treated patients. […] In the study, it was evident that a number of patients in each group was not normally distributed—i.e., a few patients in each group experienced many more falls than the remaining patients in each respective group. A sensitivity analysis was performed to assess the robustness of the treatment effect in light of this disparity in falls within each group. The beneficial treatment effect favoring droxidopa was evident even when the top two patients or the top five patients who experienced the highest number of falls in each treatment group were removed from the analysis. See FIG. 4 and FIG. 5, respectively. When the top two patients in each treatment group were excluded, patients randomized to the placebo group experienced an average of 0.54 falls per patient per week compared with 0.16 falls per patient per week in patients randomized to the droxidopa group. Similarly, when the top five patients in each treatment group were excluded, patients randomized to the placebo group experienced an average of 0.20 falls per patient per week compared with 0.10 falls per patient per week in patients randomized to the droxidopa group.
# [2] = system: PD patients; assay: Hoehn and Yahr rating scale score, study of Example 1; format: in vivo, human; settings: for Hoehn and Yahr, Baseline: before treatment
# Experimental: (§1) A multi-center, double-blind, randomized, parallel-group, placebo-controlled study was carried out to assess the clinical effect of droxidopa over the course of 10 weeks for reducing falls in PD patients. The study included a two week double-blind dose-titration period followed by an eight week double-blind treatment period. A screening period (up to 14 days) was used to determine patient eligibility. Throughout the study, visit specific assessments were conducted three hours (an acceptable range was two to five hours) following the patient's first daily dose of droxidopa. Patients who successfully passed all screening assessments continued to the baseline measurements. At the end of the baseline visit, eligible patients were randomized to treatment with either droxidopa or placebo (randomization was double-blind, 1:1). Patients entered a double-blind titration phase at 100 mg TID of droxidopa or matching placebo. Treatment was escalated in 100 mg TID increments to a maximum of 600 mg TID. Upon completion of the dose titration phase, patients returned for a study visit after 8 weeks of double-blind treatment at their titrated dose. The study included 27 placebo-treated patients and 24 droxidopa-treated patients.
# (§2) Patients in the study were evaluated using the Hoehn and Yahr rating scale and the Movement Disorder Society-sponsored revised version of the UPDRS to evaluate the effect of treatment as evidenced by these two scales. A baseline score for each patient using each test was established prior to treatment with droxidopa or the placebo, and a post-treatment score for each test was established at the end of the study.
# Since the Hoehn and Yahr rating scale is heavily weighted towards postural instability as the primary index of disease severity, it is believed that the Hoehn and Yahr score serves as a useful measure of the effect of treatment on NOH in a PD patient population. At the end of this study, droxidopa-treated patients experienced, on average, an improvement from baseline (i.e., a reduction in the score) in their Hoehn and Yahr rating scale score (change: −0.4 points) while placebo-treated patients experienced no change from baseline in their Hoehn and Yahr rating scale score, resulting in a notable treatment difference of −0.4 units favoring droxidopa. Based on an analysis of Hoehn and Yahr rating scale scores in individual patients, a higher proportion of droxidopa-treated patients experienced an improvement in their Hoehn and Yahr rating scale score at the end of the study (10 of 24 patients; 42%) compared with placebo-treated patients (5 of 27 patients; 19%). Conversely, a lower proportion of droxidopa-treated patients experienced a worsening in their Hoehn and Yahr rating scale score at the end of the study (3 of 24 patients; 13%) compared with placebo-treated patients (10 of 27 patients; 37%).
# [3] = system: PD patients; assay: MDS-UPDRS score, study of Example 1; format: in vivo, human; settings: for MDS-UPDRS, Baseline: before treatment
# Experimental: as §1, §2
# The UPDRS likewise is a useful test for evaluating improvements in symptoms that can be a cause of falls in PD patients since this scale is used to assess the severity of motor and non-motor symptoms in PD patients. In the present study, droxidopa-treated patients experienced a 15.8 point improvement (i.e., decrease) from baseline compared with an 11.4 point improvement in placebo-treated patients. […] The 4.4 point treatment difference favoring droxidopa in the total UPDRS score reflects pronounced improvement in the motor features of PD and mirrors the improvements observed on the Hoehn and Yahr rating scale score.
# [4] = system: PD patients; assay: Patient falls, double-blind placebo-controlled study of Example 2; format: in vivo, human
# Experimental: A multi-center, double-blind, randomized, placebo-controlled study was carried out to assess the clinical effect of droxidopa for reducing falls in PD patients. The study included a two week double-blind dose-titration period followed by an eight week double-blind treatment period. A screening period (up to 14 days) was used to determine patient eligibility. The patients were then randomized into a treatment group and a placebo group. Patients entered a double-blind titration phase at 100 mg TID of droxidopa or matching placebo. Treatment was escalated in 100 mg TID increments to a maximum of 600 mg TID. Upon completion of the dose titration phase, patients returned for study visits after 1, 2, 4, and 8 weeks of double-blind treatment at their titrated dose. The study included 78 placebo-treated patients and 69 droxidopa-treated patients. […] This is illustrated in FIG. 9.
# [5] = system: PD patients suffering from "freezing of gait"; settings: Narabayashi et al. 1981; cited from earlier work
# [6] = biological target: T1, MAO-A (Homo sapiens, UniProt P21397); settings: cited from earlier work
# T1 sequence (P21397 1-527): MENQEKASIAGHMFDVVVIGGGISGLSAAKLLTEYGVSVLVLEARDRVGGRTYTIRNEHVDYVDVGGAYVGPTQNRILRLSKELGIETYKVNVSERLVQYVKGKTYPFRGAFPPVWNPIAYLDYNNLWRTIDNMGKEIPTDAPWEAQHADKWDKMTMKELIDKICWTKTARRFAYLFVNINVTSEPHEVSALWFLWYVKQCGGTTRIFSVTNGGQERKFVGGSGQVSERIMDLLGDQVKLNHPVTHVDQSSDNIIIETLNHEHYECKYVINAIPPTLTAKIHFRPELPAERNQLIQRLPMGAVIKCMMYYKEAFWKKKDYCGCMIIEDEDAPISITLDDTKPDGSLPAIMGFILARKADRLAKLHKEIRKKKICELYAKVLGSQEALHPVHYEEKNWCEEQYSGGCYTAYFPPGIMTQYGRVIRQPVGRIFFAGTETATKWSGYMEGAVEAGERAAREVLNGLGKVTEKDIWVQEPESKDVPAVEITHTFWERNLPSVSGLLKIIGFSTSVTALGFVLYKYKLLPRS
# [7] = patients with recurrent falls, versus placebo
structure (smiles),measurement,setting,value
"NC(C(=O)O)C(O)c1ccc(O)c(O)c1 (stereo not drawn) [droxidopa, threo-3-(3,4-dihydroxyphenyl) serine]",reduction in the number of falls compared with placebo-treated patients,[1],~60%
same,total number of falls reported during the study,"[1]; 10 weeks, 24 droxidopa-treated patients, titrated 100-600 mg TID, placebo 197",79 falls
same,treatment effect on total number of patient falls,[1]; data from the first 10 days of the study removed,beneficial treatment effect favoring droxidopa on the total number of patient falls remained evident
same,average falls per patient per week,"[1]; full analysis set, placebo 0.93",0.39 falls per patient per week
same,patients who experienced recurrent falls,"[1]; of 24 droxidopa-treated patients, placebo 12 of 27",nine
same,average falls per patient per week,"[1]; top five patients with highest number of falls in each group excluded, placebo 0.20",0.10 falls per patient per week
same,average falls per patient per week,"[1]; top two patients with highest number of falls in each group excluded, placebo 0.54",0.16 falls per patient per week
same,cumulative number of patient-recorded falls over time,[1]; versus placebo,relative increase in the number of falls in the placebo treatment group over time was consistently larger compared with the relative increase over time in the droxidopa treatment group
same,"Hoehn and Yahr, End of Study",[2]; Non-recurrent Fallers (n = 15),1.4
same,"Hoehn and Yahr, Baseline",[2]; Non-recurrent Fallers (n = 15),1.8
same,"Hoehn and Yahr, End of Study",[2]; Recurrent Fallers (n = 9),1.7
same,"Hoehn and Yahr, Baseline",[2]; Recurrent Fallers (n = 9),1.9
same,"Change in Hoehn and Yahr Rating Scale Score: Improved, %","[2]; end of study, N = 24",42%
same,"Change in Hoehn and Yahr Rating Scale Score: No Change, %","[2]; end of study, N = 24",46%
same,"Change in Hoehn and Yahr Rating Scale Score: Worsened, %","[2]; end of study, N = 24",13%
same,change from baseline in Hoehn and Yahr rating scale score,"[2]; end of study, all droxidopa-treated patients, average, placebo no change",−0.4 points
same,treatment difference in Hoehn and Yahr rating scale score favoring droxidopa,"[2]; end of study, versus placebo",−0.4 units
same,improvement in Hoehn and Yahr score,[2]; [7],marked improvement
same,"MDS-UPDRS, End of Study",[3]; Non-recurrent Fallers (n = 15),58.1
same,"MDS-UPDRS, Baseline",[3]; Non-recurrent Fallers (n = 15),74.3
same,"MDS-UPDRS, End of Study",[3]; Recurrent Fallers (n = 9),77.7
same,"MDS-UPDRS, Baseline",[3]; Recurrent Fallers (n = 9),89.1
same,improvement (decrease) from baseline in UPDRS score,"[3]; end of study, all droxidopa-treated patients, placebo 11.4",15.8 point
same,improvement in UPDRS score,[3]; [7],marked improvement
same,each of the four components of the UPDRS score,[3]; versus placebo,showed benefits for droxidopa compared with placebo
same,treatment difference favoring droxidopa in the total UPDRS score,[3]; versus placebo,4.4 point
same,rate of falls per patient per week,"[4]; 69 droxidopa-treated, 78 placebo-treated patients, titrated 100-600 mg TID",visibly less than in the placebo treatment group
same,"treatment effect on falls, sensitivity analysis","[4]; top two, top five and top ten patients with highest number of falls in each group removed",beneficial treatment effect favoring droxidopa was again evident
same,effect on freezing of gait,[5],a beneficial effect was reported
O=C(NCCN1CCOCC1)c1ccc(Cl)cc1 [moclobemide],selectivity for MAO-A over MAO-B,[6],approximately three times more selective for MAO-A than MAO-B
